Like-named read-outs stand apart in the source and are kept apart here. Where a SMILES comes first, the peptide text is derived from it. Where no end group is shown, it is not given here.
Assays:
indicated HLA alleles [1] = assay: Stability of mutant EGFR neopeptides with the HLA alleles; format: binding, human; conditions: EGFR_T790M
Procedure: (§1) Multiple peptides containing neoepitopes in the table below were either expressed or loaded onto antigen presenting cells. Mass spectrometry was then performed and the affinity of the neoepitopes for indicated HLA alleles were determined, and the stability of the neoepitopes with the HLA alleles were determined.

indicated HLA alleles [2] = assay: Stability of mutant BTK neopeptides with the HLA alleles; format: binding, human; conditions: BTK_C481S
Procedure: as §1

[3] = for Solubility in […] SS in D5W w/ 4% DMSO: […] sodium succinate in D5W; for solubility: without DMSO; for Solubility in […] SS in D5W w/o DMSO / Solubility in Poly ICLC + […] SS in D5W w/o DMSO: no DMSO; for solubility in low SS: lower SS concentration ([…] SS/D5W)
Procedure: All buffers were prepared daily. […] Peptides were weighed into 15 mL or 50 mL conical tubes using a Mettler Toledo XP105 Delta Mass analytical balance and the actual gross weight was recorded and used to determine how much DMSO to obtain 50 mg/mL. The calculation is shown below:
DMSO (μL)=(Actual gross weight (mg)*264 μl)/(Target gross weight (mg)) Equation 4.
The stock was then diluted to 2 mg/mLL (1 part DMSO stock, 24 parts buffer) in the appropriate formulation buffer.
Peptides weights and percent content were calculated as described above and the appropriate buffer was added directly to the peptides. The target gross weight calculated using Eq. 3 and the volume of buffer used to obtain 2 mg/mL peptide was calculated using Equation 5.
Buffer (ml)=(Actual gross weight (mg)*6.6 mL)/(Target gross weight (mg)) Equation 5.
Peptides were further diluted 1:4 with buffer to obtain 0.4 mg/mL or, only when indicated, was buffer added directly to the dry peptide to obtain 0.4 mg/mL. In the latter case, Equation 6 to determine the appropriate volume to add.
Buffer (ml)=(Actual gross weight (mg)*33 mL)/(Target gross weight (mg)) Equation 6.
The peptides were dissolved by inverting the conical tubes and not by sonicating or vortexing them.
To pool 5 peptides, equal volume from each 2 mg/mL stock was combined to obtain 0.4 mg/mL of each peptide. In the case of pools with less than 5 peptides, equal volumes of the peptides were combined then the solution was diluted with the appropriate buffer to obtain 0.4 mg/mL of each peptide. The pools were inverted 3-5 times to mix. The formulated peptides were transferred to glass vials to visualize solubility. Photographs were taken every two hours to note any changes in appearance.
Pools were combined at a 3:1 ratio of peptide to polyICLC using 150 μL polyICLC with 450 μL peptide pool in a 2 mL glass vial. The solution was inverted 3-5 times to mix and photographs were taken every two hours for 6 hours to note any changes in appearance. All pH measurements were made using a Mettler Toledo inLab Micro pH meter, which was calibrated every day before use. 100 μL of the sample being analyzed was removed and added to a microcentrifuge tube to measure the pH. The sample was then discarded. Samples by UPLC-MS (Waters Acquity H-Class with an Acquity QDa mass spectrometer). A 2 μL injection of each sample was analyzed in duplicate using an 8 minute gradient from 10:90 solvent A:B to 50:50 solvent A:B (A:0.1% TFA/water, B: 0.1% TFA:acetonitrile).

## CC[C@H](C)[C@H](N)C(=O)N[C@@H](CCSC)C(=O)N[C@@H](CCC(N)=O)C(=O)N[C@@H](CC(C)C)C(=O)N[C@@H](CCSC)C(=O)N1CCC[C@H]1C(=O)N[C@@H](Cc1ccccc1)C(=O)NCC(=O)N[C@@H](CS)C(=O)N[C@@H](CC(C)C)C(=O)O
Indicated HLA alleles [1]; HLA A02.01
  Stability (1/2 hr): 0.5156 h
Indicated HLA alleles [1]; HLA A24.02
  Stability (1/2 hr): 0 h
Indicated HLA alleles [1]; HLA B08.01
  Stability (1/2 hr): 0 h

## CSCC[C@H](N)C(=O)N[C@@H](C)C(=O)N[C@@H](CC(N)=O)C(=O)NCC(=O)N[C@@H](CO)C(=O)N[C@@H](CC(C)C)C(=O)N[C@@H](CC(C)C)C(=O)N[C@@H](CC(N)=O)C(=O)N[C@@H](Cc1ccc(O)cc1)C(=O)N[C@@H](CC(C)C)C(=O)O
Indicated HLA alleles [2]; HLA A02.01
  Stability (1/2 hr): 0 h
Indicated HLA alleles [2]; HLA B07.02
  Stability (1/2 hr): 0 h
Indicated HLA alleles [2]; HLA B08.01
  Stability (1/2 hr): 0 h

## CSCC[C@H](NC(=O)[C@H](CC(C)C)NC(=O)[C@H](CCC(N)=O)NC(=O)[C@@H](N)CCSC)C(=O)N1CCC[C@H]1C(=O)N[C@@H](Cc1ccccc1)C(=O)NCC(=O)N[C@@H](CS)C(=O)N[C@@H](CC(C)C)C(=O)O
Indicated HLA alleles [1]; HLA A02.01
  Stability (1/2 hr): 0.3683 h
Indicated HLA alleles [1]; HLA B07.02
  Stability (1/2 hr): 0 h
Indicated HLA alleles [1]; HLA B08.01
  Stability (1/2 hr): 0 h

## CSCC[C@H](NC(=O)[C@H](CC(C)C)NC(=O)[C@H](CCC(N)=O)NC(=O)[C@@H](N)CCSC)C(=O)N1CCC[C@H]1C(=O)N[C@@H](Cc1ccccc1)C(=O)NCC(=O)N[C@@H](CS)C(=O)N[C@@H](CC(C)C)C(=O)N[C@@H](CC(C)C)C(=O)O
Indicated HLA alleles [1]; HLA A02.01
  Stability (1/2 hr): 0.3811 h
Indicated HLA alleles [1]; HLA A24.02
  Stability (1/2 hr): 0 h
Indicated HLA alleles [1]; HLA B08.01
  Stability (1/2 hr): 0 h

## CC[C@H](C)[C@H](NC(=O)[C@H](CC(C)C)NC(=O)[C@@H](N)CCC(N)=O)C(=O)N[C@@H](CCSC)C(=O)N[C@@H](CCC(N)=O)C(=O)N[C@@H](CC(C)C)C(=O)N[C@@H](CCSC)C(=O)N1CCC[C@H]1C(=O)N[C@@H](Cc1ccccc1)C(=O)O
Indicated HLA alleles [1]; HLA A02.01
  Stability (1/2 hr): 0.3407 h
Indicated HLA alleles [1]; HLA A24.02
  Stability (1/2 hr): 0.3687 h
Indicated HLA alleles [1]; HLA B08.01
  Stability (1/2 hr): 0 h

## CC[C@H](C)[C@H](NC(=O)[C@H](CC(C)C)NC(=O)[C@H](CCC(N)=O)NC(=O)[C@@H](N)C(C)C)C(=O)N[C@@H](CCSC)C(=O)N[C@@H](CCC(N)=O)C(=O)N[C@@H](CC(C)C)C(=O)N[C@@H](CCSC)C(=O)N1CCC[C@H]1C(=O)N[C@@H](Cc1ccccc1)C(=O)O
Indicated HLA alleles [1]; HLA A02.01
  Stability (1/2 hr): 0 h
Indicated HLA alleles [1]; HLA A24.02
  Stability (1/2 hr): 0 h
Indicated HLA alleles [1]; HLA B08.01
  Stability (1/2 hr): 0 h

## CSCC[C@H](N)C(=O)N[C@@H](Cc1ccccc1)C(=O)N[C@@H](C)C(=O)N[C@H](C(=O)N[C@@H](CC(C)C)C(=O)N[C@@H](CCC(N)=O)C(=O)N[C@@H](CCCNC(=N)N)C(=O)N[C@@H](CO)C(=O)N[C@@H](CO)C(=O)N[C@@H](CC(C)C)C(=O)N[C@@H](Cc1c[nH]c2ccccc12)C(=O)N[C@@H](CS)C(=O)N[C@@H](CC(C)C)C(=O)N[C@@H](CS)C(=O)N[C@@H](CO)C(=O)N[C@@H](CC(N)=O)C(=O)N[C@@H](Cc1c[nH]cn1)C(=O)O)[C@@H](C)O [Peptide 12b] (H-MFATLQRSSLWCLCSNH-OH)
[3]; 0.5 mM sodium succinate in D5W, 4% DMSO, no polyICLC
  Solubility in 0.5 mM SS in D5W w/ 4% DMSO: Yes
[3]; 4% DMSO, no polyICLC
  Solubility in […] SS in D5W w/ 4% DMSO: Yes
[3]; with polyICLC, 4% DMSO
  Solubility in Poly ICLC + […] SS in D5W w/ 4% DMSO: No

## CC[C@H](C)[C@H](NC(=O)[C@H](CCCCN)NC(=O)[C@H](CO)NC(=O)[C@@H](N)CCC(=O)O)C(=O)N[C@@H](CCSC)C(=O)N[C@@H](Cc1ccccc1)C(=O)N[C@@H](C)C(=O)N[C@H](C(=O)N[C@@H](CC(C)C)C(=O)N[C@@H](CCC(N)=O)C(=O)N[C@@H](CCCNC(=N)N)C(=O)N[C@@H](CO)C(=O)N[C@@H](CO)C(=O)N[C@@H](CC(C)C)C(=O)O)[C@@H](C)O [Peptide L11i]
[3]; 0.4 mg/mL, D5W with all SS concentrations tested
  solubility: soluble
[3]; 2 mg/mL in the higher SS concentration, D5W
  solubility: Some precipitation
[3]; no polyICLC
  Solubility in […] SS in D5W w/o DMSO: Yes
[3]
  solubility in low SS: soluble
[3]; with polyICLC
  Solubility in Poly ICLC + […] SS in D5W w/o DMSO: Yes

## CSCC[C@H](N)C(=O)N[C@@H](Cc1ccccc1)C(=O)N[C@@H](C)C(=O)N[C@H](C(=O)N[C@@H](CC(C)C)C(=O)N[C@@H](CCC(N)=O)C(=O)N[C@@H](CCCNC(=N)N)C(=O)N[C@@H](CO)C(=O)N[C@@H](CO)C(=O)N[C@@H](CC(C)C)C(=O)N[C@@H](Cc1c[nH]c2ccccc12)C(=O)N[C@@H](CS)C(=O)N[C@@H](CC(C)C)C(=O)N[C@@H](CS)C(=O)O)[C@@H](C)O [Peptide L12c]
[3]; 4% DMSO, no polyICLC
  Solubility in […] SS in D5W w/ 4% DMSO: No

## CC(C)C[C@H](NC(=O)[C@H](CS)NC(=O)[C@H](Cc1c[nH]c2ccccc12)NC(=O)[C@H](CC(C)C)NC(=O)[C@H](CO)NC(=O)[C@H](CO)NC(=O)[C@H](CCCNC(=N)N)NC(=O)[C@H](CCC(N)=O)NC(=O)[C@H](CC(C)C)NC(=O)[C@@H](N)[C@@H](C)O)C(=O)N[C@@H](CS)C(=O)N[C@@H](CO)C(=O)N[C@@H](CC(N)=O)C(=O)N[C@@H](Cc1c[nH]cn1)C(=O)O [Peptide L12d] (H-TLQRSSLWCLCSNH-OH)
[3]; 5 mM SS, after 6 hours
  solubility: soluble
[3]; no polyICLC
  Solubility in […] SS in D5W w/o DMSO: Yes
[3]; 4% DMSO, no polyICLC
  Solubility in […] SS in D5W w/ 4% DMSO: Yes
[3]; with polyICLC, 5 mM SS in D5W, 4% DMSO
  Solubility in Poly ICLC + 5 mM SS in D5W w/ 4% DMSO: Yes
[3]; with polyICLC, 4% DMSO
  Solubility in Poly ICLC + […] SS in D5W w/ 4% DMSO: Yes

## CC[C@H](C)[C@H](NC(=O)[C@H](CCCCN)NC(=O)[C@H](CO)NC(=O)[C@H](CCC(=O)O)NC(=O)[C@H](C)NC(=O)[C@H](CCCCN)NC(=O)[C@H](CC(C)C)NC(=O)[C@H](Cc1ccccc1)NC(=O)[C@H](CCSC)NC(=O)[C@H](Cc1ccc(O)cc1)NC(=O)CNC(=O)[C@H](CC(=O)O)NC(=O)[C@H](CCCNC(=N)N)NC(=O)[C@H](CCCCN)NC(=O)[C@@H]1CCCN1C(=O)[C@@H](N)CCCCN)C(=O)N[C@@H](CCSC)C(=O)N[C@@H](Cc1ccccc1)C(=O)N[C@@H](C)C(=O)N[C@H](C(=O)N[C@@H](CC(C)C)C(=O)N[C@@H](CCC(N)=O)C(=O)N[C@@H](CCCNC(=N)N)C(=O)N[C@@H](CO)C(=O)N[C@@H](CO)C(=O)N[C@@H](CC(C)C)C(=O)N[C@@H](Cc1c[nH]c2ccccc12)C(=O)N[C@@H](CS)C(=O)N[C@@H](CC(C)C)C(=O)N[C@@H](CS)C(=O)N[C@@H](CO)C(=O)N[C@@H](CC(N)=O)C(=O)N[C@@H](Cc1c[nH]cn1)C(=O)O)[C@@H](C)O [Peptide L15] (H-KPKRDGYMFLKAESKIMFATLQRSSLWCLCSNH-OH; N-terminus and C-terminus assumed)
[3]; 0.4 mg/mL in […] SS, after 6 hours
  solubility: soluble
[3]; 5 mM SS (higher SS concentration) in D5W
  solubility in 5 mM SS: not soluble
[3]; no polyICLC
  Solubility in […] SS in D5W w/o DMSO: Yes
[3]
  solubility in low SS: soluble
[3]; with polyICLC
  Solubility in Poly ICLC + […] SS in D5W w/o DMSO: Yes

## DGYMFLKAESKIMFAT [Peptide L11e]
[3]; 4% DMSO, no polyICLC
  Solubility in […] SS in D5W w/ 4% DMSO: No

— patent US20210275657A1, “NEOANTIGENS AND USES THEREOF” (BioNTech US Inc., priority 2018, published 2021)
